pIC50: −log10 of the molar value.

One experiment concerns IL-1b. Briefly: Human Monocyte IL-1b Assay. It counts as cell-based. The following applies: Homo sapiens, Monocyte, fresh human whole blood; compound 0.5 h, 100 ng/mL LPS 3.5 h at 37° C., 5 mM ATP 45 min; IL-1b in supernatant by ELISA. The procedure: Example 46: Human Monocyte IL-1b Assay
Serially diluted testing compounds were incubated with […] of fresh human whole blood for 0.5 hours. Cells were primed with 100 ng/mL lipopolysaccharide (LPS) for 3.5 hours at 37° C. followed by stimulation with 5 mM ATP for an additional 45 minutes. The concentration of IL-1b concentration in the supernatant was determined with commercially available ELISA kits. Negative controls are wells without stimulation, while positive controls are wells with stimulation but only DMSO without compounds added. After background subtraction, compound treatment wells were then normalized to the positive controls for IC50 calculations.
As for `Cc1cc(-c2ccc(C(F)(F)F)cc2O)nnc1C(O)C1CCCN(C)C1` (centres unmarked) [Compound 12, 2-(6-(hydroxy(1-methylpiperidin-3-yl)methyl)-5-methylpyridazin-3-yl)-5-(trifluoromethyl)phenol], the pIC50 (usually the IC50 on a negative log10 scale, so that one unit is a factor of ten) is 5.52 to 6.30.

With `Cc1c(C(=O)C2CCCN(C)C2)nnc(-c2ccc(C(F)(F)F)cc2O)c1C` (centres unmarked) [Compound 2, (6-(2-hydroxy-4-(trifluoromethyl)phenyl)-4,5-dimethylpyridazin-3-yl)(1-methylpiperidin-3-yl)methanone], the pIC50 was 5.52 to 6.30.

As for `Cc1cc([C@@H](O)[C@@H]2CCCN(C)C2)nnc1-c1ccc(C(F)(F)F)cc1O` [Compound 17A, 2-(6-((S)-hydroxy((R)-1-methylpiperidin-3-yl)methyl)-4-methylpyridazin-3-yl)-5-(trifluoromethyl)phenol], the pIC50 was > 6.30.

Turning to `Cc1c(-c2ccc(C(F)(F)F)cc2O)nnc(C(C)(O)C2CCCN(C)C2)c1C` (centres unmarked) [Compound 3, 2-(6-(1-hydroxy-1-(1-methylpiperidin-3-yl)ethyl)-4,5-dimethylpyridazin-3-yl)-5-(trifluoromethyl)phenol], the pIC50 was > 6.30. On to `Cc1cc(C(F)(F)F)cc(O)c1-c1ccc(C(O)C2CCCN(C)C2)nn1` (centres unmarked) [Compound 20, 2-(6-(hydroxy(1-methylpiperidin-3-yl)methyl)pyridazin-3-yl)-3-methyl-5-(trifluoromethyl)phenol], for which the pIC50 was > 6.30. On to `Oc1cc(C(F)(F)F)ccc1-c1ccc(CC2(O)CCCNC2)nn1` (centres unmarked) [Compound 21, 3-((6-(2-hydroxy-4-(trifluoromethyl)phenyl)pyridazin-3-yl)methyl)piperidin-3-ol], for which the pIC50 was 5.00 to 5.52. As to `Cc1cc(C)c(-c2ccc(C(O)C3CCCN(C)C3)nn2)c(O)c1` (centres unmarked) [Compound 19, 2-(6-(hydroxy(1-methylpiperidin-3-yl)methyl)pyridazin-3-yl)-3,5-dimethylphenol], the pIC50 was > 6.30. On the same count and under the same terms, then `Cc1cc([C@H](O)[C@@H]2CCCN(C(C)C)C2)nnc1-c1ccc(C(F)(F)F)cc1O` [Compound 41, 2-(6-((R)-hydroxy((R)-1-isopropylpiperidin-3-yl)methyl)-4-methylpyridazin-3-yl)-5-(trifluoromethyl)phenol], with > 6.30. On to `Cc1cc([C@H](O)[C@H]2CCCN(C)C2)nnc1-c1ccc(C(F)(F)F)cc1O` [Compound 17C, 2-(6-((R)-hydroxy((S)-1-methylpiperidin-3-yl)methyl)-4-methylpyridazin-3-yl)-5-(trifluoromethyl)phenol], for which the pIC50 was > 6.30.

On to `CN1CCC[C@@H]([C@@H](O)c2nnc(-c3ccc(C(F)(F)F)cc3O)c3c2CCC3)C1` (racemic) [Compound 43A, 2-(4-((R)-hydroxy((R)-1-methylpiperidin-3-yl)methyl)-6,7-dihydro-5H-cyclopenta[d]pyridazin-1-yl)-5-(trifluoromethyl)phenol], for which the negative-log IC50 (pIC50) is > 6.30. In the case of `Cc1cc([C@H](O)[C@@H]2CCCN(C)C2)nnc1-c1ccc(C(F)(F)F)cc1O` [Compound 17B, 2-(6-((R)-hydroxy((R)-1-methylpiperidin-3-yl)methyl)-4-methylpyridazin-3-yl)-5-(trifluoromethyl)phenol], the pIC50 is > 6.30. On the same count and under the same terms, then `Cc1cc([C@H](O)C2CN3CCC2CC3)nnc1-c1ccc(C(F)(F)F)cc1O` (stereo partly drawn) [Compound 28A, 2-(6-((1R)-hydroxy(quinuclidin-3-yl)methyl)-4-methylpyridazin-3-yl)-5-(trifluoromethyl)phenol], with > 6.30; and `Cc1cc(C(O)C2CCCN(C)C2)nnc1-c1ccc(C(F)(F)F)cc1O` (centres unmarked) [Compound 11, 2-(6-(hydroxy(1-methylpiperidin-3-yl)methyl)-4-methylpyridazin-3-yl)-5-(trifluoromethyl)phenol], with > 6.30. Compound `Cc1cc(C(O)C2CCC3CCCN3C2)nnc1-c1ccc(C(F)(F)F)cc1O` (centres unmarked) [Compound 38, 2-(6-(hydroxy(octahydroindolizin-6-yl)methyl)-4-methylpyridazin-3-yl)-5-(trifluoromethyl)phenol] showed a pIC50 of 5.52 to 6.30. The same measure, in the same setting: next, `Cc1cc(C(O)C2CCC3CCC2N3C)nnc1-c1ccc(C(F)(F)F)cc1O` (centres unmarked) [Compound 34, 2-(6-(hydroxy(8-methyl-8-azabicyclo[3.2.1]octan-2-yl)methyl)-4-methylpyridazin-3-yl)-5-(trifluoromethyl)phenol]: > 6.30; `Cc1cc(C(O)C2CCCCN2C)nnc1-c1ccc(C(F)(F)F)cc1O` (centres unmarked) [Compound 39, 2-(6-(hydroxy(1-methylpiperidin-2-yl)methyl)-4-methylpyridazin-3-yl)-5-(trifluoromethyl)phenol]: > 6.30. Take `Cc1cc(C(=O)c2cccnc2)nnc1-c1ccc(C(F)(F)F)cc1O` [Compound 13, (6-(2-hydroxy-4-(trifluoromethyl)phenyl)-5-methylpyridazin-3-yl)(pyridin-3-yl)methanone]: the pIC50 is 5.52 to 6.30.

Turning to `Cc1cc([C@H](O)[C@@H]2CCCNC2)nnc1-c1ccc(C(F)(F)F)cc1O` [Compound 40, 2-(6-((R)-hydroxy((R)-piperidin-3-yl)methyl)-4-methylpyridazin-3-yl)-5-(trifluoromethyl)phenol], the pIC50 was > 6.30.

`Cc1cc(C(O)[C@@H]2CCCN(C)C2)nnc1-c1cc(F)c(C(F)(F)F)cc1O` (stereo partly drawn) [Compound 42, 4-fluoro-2-(6-(hydroxy((R)-1-methylpiperidin-3-yl)methyl)-4-methylpyridazin-3-yl)-5-(trifluoromethyl)phenol]: the pIC50 is > 6.30. Same read-out and setting: then `[2H][C@@](O)(c1cc(C)c(-c2ccc(C(F)(F)F)cc2O)nn1)[C@@H]1CCCN(C)C1` [Compound 18, 2-(6-((S)-hydroxy((R)-1-methylpiperidin-3-yl)methyl-d)-4-methylpyridazin-3-yl)-5-(trifluoromethyl)phenol], with > 6.30; and `Cc1cc([C@H](O)[C@@H]2CCCN(C3CC3)C2)nnc1-c1ccc(C(F)(F)F)cc1O` [Compound 25, 2-(6-((R)-((R)-1-cyclopropylpiperidin-3-yl)(hydroxy)methyl)-4-methylpyridazin-3-yl)-5-(trifluoromethyl)phenol], with > 6.30; and `Cc1cc([C@@H](O)[C@]2(C)CCCN(C)C2)nnc1-c1ccc(C(F)(F)F)cc1O` [Compound 27B, 2-(6-((S)-((R)-1,3-dimethylpiperidin-3-yl)(hydroxy)methyl)-4-methylpyridazin-3-yl)-5-(trifluoromethyl)phenol], with 5.00 to 5.52.

With `CN1CCCC(C(O)c2nnc(-c3ccc(C(F)(F)F)cc3O)c3ccccc23)C1` (centres unmarked) [Compound 9, 2-(4-(hydroxy(1-methylpiperidin-3-yl)methyl)phthalazin-1-yl)-5-(trifluoromethyl)phenol], the negative-log IC50 (pIC50) is > 6.30.

With `COc1cc(C(F)(F)F)ccc1-c1nnc(C(O)C2CN(C)C2)cc1C` (centres unmarked) [Compound 30, (6-(2-methoxy-4-(trifluoromethyl)phenyl)-5-methylpyridazin-3-yl)(1-methylazetidin-3-yl)methanol], the pIC50 is 5.00 to 5.52. Regarding `Cc1cc(C(O)c2cccnc2)nnc1-c1ccc(C(F)(F)F)cc1O` (centres unmarked) [Compound 10, 2-(6-(hydroxy(pyridin-3-yl)methyl)-4-methylpyridazin-3-yl)-5-(trifluoromethyl)phenol], the pIC50 is 5.00 to 5.52. `Cc1cc(C(=NO)C2CCCN(C)C2)nnc1-c1ccc(C(F)(F)F)cc1O` (centres unmarked) [Compound 16, (6-(2-hydroxy-4-(trifluoromethyl)phenyl)-5-methylpyridazin-3-yl)(1-methylpiperidin-3-yl)methanone oxime]: the pIC50 is > 6.30.

On to `Cc1c(CC2CCCN(C)C2)nnc(-c2ccc(C(F)(F)F)cc2O)c1C` (centres unmarked) [Compound 5, 2-(4,5-dimethyl-6-((1-methylpiperidin-3-yl)methyl)pyridazin-3-yl)-5-(trifluoromethyl)phenol], for which the pIC50 is > 6.30.

The same experiment, now with this note: Monocyte; fresh human whole blood; compound 0.5 h, 100 ng/mL LPS 3.5 h at 37° C., 5 mM ATP 45 min; IL-1b in supernatant by ELISA.
As to `Cc1cc([C@H](O)[C@@H]2CC[C@H]3CCC(=O)N3C2)nnc1-c1ccc(C(F)(F)F)cc1O` [Compound 37, (6R,8aS)-6-((R)-hydroxy(6-(2-hydroxy-4-(trifluoromethyl)phenyl)-5-methylpyridazin-3-yl)methyl)hexahydroindolizin-3(2H)-one], the pIC50 is 5.52 to 6.30. `Cc1cc(C(O)C2CCCCN(C)C2)nnc1-c1ccc(C(F)(F)F)cc1O` (centres unmarked) [Compound 32, 2-(6-(hydroxy(1-methylazepan-3-yl)methyl)-4-methylpyridazin-3-yl)-5-(trifluoromethyl)phenol]: the pIC50 was > 6.30. For the compound `Cc1cc(C(O)C23CCCN(CC2)C3)nnc1-c1ccc(C(F)(F)F)cc1O` (centres unmarked) [Compound 29, 2-(6-((1-azabicyclo[3.2.1]octan-5-yl)(hydroxy)methyl)-4-methylpyridazin-3-yl)-5-(trifluoromethyl)phenol], the pIC50 was 5.52 to 6.30.

Still in this experiment, the particulars now being: fresh human whole blood; compound 0.5 h, 100 ng/mL LPS 3.5 h at 37° C., 5 mM ATP 45 min; IL-1b in supernatant by ELISA.
Compound `CN1CCC[C@@H]([C@@H](O)c2nnc(-c3ccc(C(F)(F)F)cc3O)c3c2CCC3)C1` (racemic) [Compound 43B, 2-(4-((R/S)-hydroxy((R/S)-1-methylpiperidin-3-yl)methyl)-6,7-dihydro-5H-cyclopenta[d]pyridazin-1-yl)-5-(trifluoromethyl)phenol] gave a pIC50 of 5.52 to 6.30. Turning to `CN1CCC[C@@H]([C@@H](O)c2nnc(-c3ccc(C(F)(F)F)cc3O)c3c2CCC3)C1` (racemic) [Compound 44, 2-(4-((R)-hydroxy((R)-1-methylpiperidin-3-yl)methyl)-6,7-dihydro-5H-cyclopenta[d]pyridazin-1-yl)-5-(trifluoromethyl)phenol], the pIC50 is > 6.30.
